Measurements: ChEMBL document CHEMBL4265996, “Genetically-encoded fragment-based discovery of glycopeptide ligands for DC-SIGN” (Bioorg Med Chem, 2018)
Activity calls are given as the source filed them. The calls are words filed in the database; no cut-off is given here. Where a SMILES comes first, the peptide text is derived from it. The star is where a group is joined. X1 = O=C(/C=N/O[C@H]1O[C@H](CO)[C@@H](O)[C@H](O)[C@@H]1O)*; X2 = O=C(/C=N/O[C@H]1O[C@H](CO)[C@H](O)[C@H](O)[C@H]1O)*

Assays:
CD209 antigen [1] = target: T1, CD209 antigen (Homo sapiens, UniProt Q9NNX6); assay: Binding affinity to DC-SIGN extracellular domain (unknown origin) expressed in Escherichia coli after 1 hr by ELISA
T1 sequence (Q9NNX6 whole entry): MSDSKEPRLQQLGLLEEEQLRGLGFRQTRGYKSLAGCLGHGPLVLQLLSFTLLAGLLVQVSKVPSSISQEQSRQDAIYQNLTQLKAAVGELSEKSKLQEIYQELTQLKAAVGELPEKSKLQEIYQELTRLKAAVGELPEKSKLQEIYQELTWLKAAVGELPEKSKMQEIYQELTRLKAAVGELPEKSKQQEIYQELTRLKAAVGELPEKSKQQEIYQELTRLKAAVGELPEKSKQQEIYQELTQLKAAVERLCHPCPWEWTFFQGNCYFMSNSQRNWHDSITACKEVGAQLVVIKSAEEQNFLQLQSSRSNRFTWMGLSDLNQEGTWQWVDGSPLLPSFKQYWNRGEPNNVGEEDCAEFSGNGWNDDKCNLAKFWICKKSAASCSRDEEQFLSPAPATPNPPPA

[2] = Binding affinity to ConA […] after 1 hr by ELISA
[3] = target: C-type lectin domain family 4 member K (Homo sapiens) (UniProt Q9UJ71); assay: Binding affinity to human langerin expressed in human Raji cells preincubated with Cy5 conjugated compound for 2 hrs followed by washing and measured by flow cytometric analysis; type: cell-based
C-type lectin domain family 4 member K (Homo sapiens), sequence (Q9UJ71 whole entry, the tested form may be a part): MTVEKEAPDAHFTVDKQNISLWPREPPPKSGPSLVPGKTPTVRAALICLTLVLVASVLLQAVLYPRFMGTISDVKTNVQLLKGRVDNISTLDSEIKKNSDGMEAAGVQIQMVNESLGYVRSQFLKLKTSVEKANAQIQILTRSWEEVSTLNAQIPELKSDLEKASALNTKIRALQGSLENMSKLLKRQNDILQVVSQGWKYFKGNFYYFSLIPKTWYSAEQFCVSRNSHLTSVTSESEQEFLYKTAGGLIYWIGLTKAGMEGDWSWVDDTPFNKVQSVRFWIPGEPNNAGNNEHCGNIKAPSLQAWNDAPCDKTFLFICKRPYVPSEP

[4] = target: T2, CD209 antigen (Homo sapiens) (UniProt Q9NNX6); assay: Binding affinity to recombinant human DC-SIGN expressed in rat-6 fibroblast preincubated with Cy5 conjugated compound for 2 hrs followed by washing and measured by flow cytometric analysis
T2 sequence (whole entry): T1 sequence (Q9NNX6 whole entry)

[5] = target: T2, CD209 antigen (Homo sapiens); assay: Binding affinity to recombinant human DC-SIGN expressed in human Raji cells preincubated with Cy5 conjugated compound for 2 hrs followed by washing and measured by flow cytometric analysis; type: cell-based
CD209 antigen [6] = target: T1, CD209 antigen; assay: Inhibition of binding of trimannoside containing horseradish peroxidase to DC-SIGN carbohydrate binding domain (unknown origin) expressed in Escherichia coli preincubated for 1 hr followed by TMB substrate addition measured after 30 mins by ELISA

Row | SMILES | EC50 (CD209 antigen [1]) | EC50 [2] | IC50 (CD209 antigen [6]) | also measured
1 | CC[C@H](C)[C@H](NC(=O)[C@H](CO)NC(=O)[C@H](CO)NC(=O)/C=N/O[C@H]1O[C@H](CO)[C@@H](O)[C@H](O)[C@@H]1O)C(=O)N[C@H](C(=O)N[C@@H](Cc1cnc[nH]1)C(=O)N[C@@H](C)C(=O)N1CCC[C@H]1C(=O)N[C@@H](CO)C(N)=O)[C@@H](C)O (stereo in doubt) | 2.8 ×10⁹ PFU | > 1 ×10¹¹ PFU | – | –
2 | CSCC[C@H](NC(=O)/C=N/O[C@H]1O[C@H](CO)[C@H](O)[C@H](O)[C@H]1O)C(=O)N1CCC[C@H]1C(=O)N[C@@H](C)C(=O)N[C@@H](Cc1c[nH]c2ccccc12)C(=O)N[C@@H](CCCNC(=N)N)C(=O)N[C@@H](Cc1cnc[nH]1)C(=O)N[C@@H](C)C(N)=O (X2-MPAWRHA-NH2) | 3.7 ×10¹⁰ PFU | – | – | –
3 | CSCC[C@H](NC(=O)/C=N/O[C@H]1O[C@H](CO)[C@@H](O)[C@H](O)[C@@H]1O)C(=O)N1CCC[C@H]1C(=O)N[C@@H](C)C(=O)N[C@@H](Cc1c[nH]c2ccccc12)C(=O)N[C@@H](CCCNC(=N)N)C(=O)N[C@@H](Cc1cnc[nH]1)C(=O)N[C@@H](C)C(N)=O (X1-MPAWRHA-NH2) | 4 ×10⁸ PFU | > 1 ×10¹¹ PFU | – | Activity [3]: inactive; Activity [4]: Active; Activity [5]: Active
4 | [N-]=[N+]=NCCCCCCO[C@H]1O[C@H](CO[C@H]2O[C@H](CO)[C@@H](O)[C@H](O)[C@@H]2O)[C@@H](O)[C@H](O[C@H]2O[C@H](CO)[C@@H](O)[C@H](O)[C@@H]2O)[C@@H]1O | – | – | 1400 µM | –
5 | CC[C@H](C)[C@H](NC(=O)[C@H](CO)NC(=O)/C=N/O[C@H]1O[C@H](CO)[C@@H](O)[C@H](O)[C@@H]1O)C(=O)N[C@H](C(=O)N[C@@H](Cc1cnc[nH]1)C(=O)N[C@@H](C)C(=O)N1CCC[C@H]1C(=O)N[C@@H](CO)C(N)=O)[C@@H](C)O (stereo in doubt) | – | – | 450 µM | –
6 | CC(C)[C@H](NC(=O)/C=N/O[C@H]1O[C@H](CO)[C@@H](O)[C@H](O)[C@@H]1O)C(=O)N[C@@H](CCC(=O)O)C(=O)N[C@@H](CCCCN)C(=O)N[C@@H](CC(N)=O)C(=O)N[C@@H](CC(=O)O)C(=O)N[C@@H](CCC(N)=O)C(=O)N[C@@H](CCCCN)C(=O)N[C@H](C(=O)N[C@@H](Cc1ccc(O)cc1)C(=O)N[C@@H](Cc1cnc[nH]1)C(=O)N[C@@H](C)C(N)=O)[C@@H](C)O (X1-VEKNDQKTYHA-NH2) | 2.6 ×10¹¹ PFU | > 1 ×10¹¹ PFU | – | Activity [4]: inactive
7 | OC[C@H]1O[C@H](O)[C@@H](O)[C@@H](O)[C@@H]1O | – | – | 6400 µM | –
8 | CC(C)C[C@H](NC(=O)[C@H](CC(=O)O)NC(=O)[C@H](Cc1ccc(O)cc1)NC(=O)[C@H](Cc1c[nH]c2ccccc12)NC(=O)/C=N/OCCO[C@H]1O[C@H](CO)[C@@H](O)[C@H](O)[C@@H]1O)C(=O)N[C@@H](Cc1ccc(O)cc1)C(=O)N[C@@H](Cc1cnc[nH]1)C(N)=O (stereo in doubt) | – | 2.9 ×10⁹ PFU | – | –
9 | CC(C)[C@H](NC(=O)/C=N/O[C@H]1O[C@H](CO)[C@H](O)[C@H](O)[C@H]1O)C(=O)N[C@@H](CCC(=O)O)C(=O)N[C@@H](CCCCN)C(=O)N[C@@H](CC(N)=O)C(=O)N[C@@H](CC(=O)O)C(=O)N[C@@H](CCC(N)=O)C(=O)N[C@@H](CCCCN)C(=O)N[C@H](C(=O)N[C@@H](Cc1ccc(O)cc1)C(=O)N[C@@H](Cc1cnc[nH]1)C(=O)N[C@@H](C)C(N)=O)[C@@H](C)O (X2-VEKNDQKTYHA-NH2) | 2 ×10¹¹ PFU | – | – | –
